Reference: ChEMBL document CHEMBL3414495, “Multi-target tacrine-coumarin hybrids: cholinesterase and monoamine oxidase B inhibition properties against Alzheimer's disease” (Eur J Med Chem, 2015)

Tests used:
[1] = molecular target: T1, Amine oxidase [flavin-containing] A (Homo sapiens, UniProt P21397); assay: Inhibition of human MAO-A using p-tyramine as substrate assessed as H2O2 production by amplex red assay
T1 sequence (P21397 whole entry): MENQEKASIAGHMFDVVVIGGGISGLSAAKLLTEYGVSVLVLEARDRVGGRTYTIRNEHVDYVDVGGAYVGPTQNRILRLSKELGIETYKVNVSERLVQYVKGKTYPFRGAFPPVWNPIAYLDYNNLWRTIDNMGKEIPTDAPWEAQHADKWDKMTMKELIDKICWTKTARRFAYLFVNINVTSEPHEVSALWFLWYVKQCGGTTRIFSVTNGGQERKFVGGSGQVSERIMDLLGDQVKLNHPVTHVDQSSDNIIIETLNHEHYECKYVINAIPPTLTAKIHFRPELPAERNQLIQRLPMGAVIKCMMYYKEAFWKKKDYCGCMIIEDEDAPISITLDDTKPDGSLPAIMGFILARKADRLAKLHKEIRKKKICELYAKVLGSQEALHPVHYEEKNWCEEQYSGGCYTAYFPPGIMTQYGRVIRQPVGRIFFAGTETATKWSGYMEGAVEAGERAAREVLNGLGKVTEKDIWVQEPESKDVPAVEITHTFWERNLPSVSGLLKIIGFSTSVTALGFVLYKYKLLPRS

[2] = molecular target: T2, Amine oxidase [flavin-containing] B (Homo sapiens, UniProt P27338)
T2 sequence (P27338 whole entry): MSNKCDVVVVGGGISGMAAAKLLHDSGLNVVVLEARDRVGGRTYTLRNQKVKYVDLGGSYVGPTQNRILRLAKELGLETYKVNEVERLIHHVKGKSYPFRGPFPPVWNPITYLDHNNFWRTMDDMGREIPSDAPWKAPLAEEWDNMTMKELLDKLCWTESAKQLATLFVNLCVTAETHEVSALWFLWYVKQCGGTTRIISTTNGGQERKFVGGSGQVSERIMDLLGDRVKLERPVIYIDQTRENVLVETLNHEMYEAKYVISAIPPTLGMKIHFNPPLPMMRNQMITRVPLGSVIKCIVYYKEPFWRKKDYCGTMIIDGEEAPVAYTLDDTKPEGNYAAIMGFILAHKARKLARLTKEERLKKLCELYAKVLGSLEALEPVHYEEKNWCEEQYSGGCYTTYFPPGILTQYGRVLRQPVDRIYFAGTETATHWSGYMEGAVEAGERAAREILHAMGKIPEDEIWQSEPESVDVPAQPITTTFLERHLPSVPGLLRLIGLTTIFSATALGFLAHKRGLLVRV
Description: Inhibition of human MAO-B using p-tyramine as substrate assessed as H2O2 production by amplex red assay

[3] = species: Homo sapiens; assay: Selectivity index, ratio of IC50 for human MAO-A to IC50 for human MAO-B
[4] = molecular target: T3, Acetylcholinesterase (Electrophorus electricus, UniProt O42275)
T3 sequence (O42275 whole entry): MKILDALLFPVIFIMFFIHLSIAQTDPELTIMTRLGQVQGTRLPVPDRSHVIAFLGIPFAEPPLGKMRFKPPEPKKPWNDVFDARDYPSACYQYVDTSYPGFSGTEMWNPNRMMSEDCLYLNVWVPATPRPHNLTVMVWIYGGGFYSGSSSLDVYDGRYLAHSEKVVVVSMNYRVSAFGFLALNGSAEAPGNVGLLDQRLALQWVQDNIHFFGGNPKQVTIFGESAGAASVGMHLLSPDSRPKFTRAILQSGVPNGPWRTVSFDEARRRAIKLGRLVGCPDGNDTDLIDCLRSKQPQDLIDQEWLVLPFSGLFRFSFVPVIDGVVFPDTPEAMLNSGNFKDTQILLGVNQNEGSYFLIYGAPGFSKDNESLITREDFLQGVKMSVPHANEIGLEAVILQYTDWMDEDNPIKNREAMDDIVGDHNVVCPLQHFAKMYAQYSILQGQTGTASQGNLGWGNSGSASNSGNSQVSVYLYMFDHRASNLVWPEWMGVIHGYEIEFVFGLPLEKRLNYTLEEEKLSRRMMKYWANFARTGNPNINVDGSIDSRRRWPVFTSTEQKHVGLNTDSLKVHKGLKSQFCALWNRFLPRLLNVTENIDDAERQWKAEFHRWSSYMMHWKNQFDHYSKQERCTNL
Description: Inhibition of electric eel AChE using acetylthiocholine iodide as substrate incubated for 6 mins prior to substrate addition measured after 60 to 180 secs by Ellman method

[5] = molecular target: Cholinesterase (Equus caballus, UniProt P81908)
Sequence of Cholinesterase (Equus caballus, UniProt P81908) (P81908 whole entry): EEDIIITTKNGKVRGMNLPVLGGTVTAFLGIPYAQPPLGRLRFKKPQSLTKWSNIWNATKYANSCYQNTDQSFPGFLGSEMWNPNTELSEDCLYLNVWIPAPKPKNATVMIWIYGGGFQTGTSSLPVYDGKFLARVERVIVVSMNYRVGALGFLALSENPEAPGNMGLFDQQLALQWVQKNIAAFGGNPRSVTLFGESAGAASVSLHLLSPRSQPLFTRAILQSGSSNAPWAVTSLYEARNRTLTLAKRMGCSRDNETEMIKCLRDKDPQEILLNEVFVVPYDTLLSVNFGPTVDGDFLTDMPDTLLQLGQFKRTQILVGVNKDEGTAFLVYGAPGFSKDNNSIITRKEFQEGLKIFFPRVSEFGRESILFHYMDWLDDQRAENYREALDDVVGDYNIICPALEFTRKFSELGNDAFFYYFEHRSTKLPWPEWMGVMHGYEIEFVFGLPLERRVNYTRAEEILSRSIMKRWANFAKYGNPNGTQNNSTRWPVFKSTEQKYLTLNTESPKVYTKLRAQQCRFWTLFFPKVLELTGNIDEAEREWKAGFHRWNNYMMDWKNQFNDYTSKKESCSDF
Description: Inhibition of horse serum BuChE using S-butyrylthiocholine iodide as substrate incubated for 6 mins prior to substrate addition measured after 60 to 180 secs by Ellman method

[6] = in vitro; conditions: PAMPA
Description: Permeability of the compound after 16 hrs by PAMPA

[7] = molecular target: T1, Amine oxidase [flavin-containing] A; assay: Inhibition of human MAO-A using p-tyramine as substrate assessed as H2O2 production at 200 uM by amplex red assay
[8] = molecular target: T1, Amine oxidase [flavin-containing] A; assay: Inhibition of human MAO-A using p-tyramine as substrate assessed as H2O2 production at 100 uM by amplex red assay
[9] = molecular target: T2, Amine oxidase [flavin-containing] B; assay: Inhibition of MAO-B (unknown origin)
[10] = molecular target: Acetylcholinesterase (Homo sapiens, UniProt P22303); assay: Inhibition of human AChE using acetylthiocholine iodide as substrate incubated for 6 mins prior to substrate addition measured after 60 to 180 secs by Ellman method
Sequence of Acetylcholinesterase (Homo sapiens, UniProt P22303) (P22303 whole entry): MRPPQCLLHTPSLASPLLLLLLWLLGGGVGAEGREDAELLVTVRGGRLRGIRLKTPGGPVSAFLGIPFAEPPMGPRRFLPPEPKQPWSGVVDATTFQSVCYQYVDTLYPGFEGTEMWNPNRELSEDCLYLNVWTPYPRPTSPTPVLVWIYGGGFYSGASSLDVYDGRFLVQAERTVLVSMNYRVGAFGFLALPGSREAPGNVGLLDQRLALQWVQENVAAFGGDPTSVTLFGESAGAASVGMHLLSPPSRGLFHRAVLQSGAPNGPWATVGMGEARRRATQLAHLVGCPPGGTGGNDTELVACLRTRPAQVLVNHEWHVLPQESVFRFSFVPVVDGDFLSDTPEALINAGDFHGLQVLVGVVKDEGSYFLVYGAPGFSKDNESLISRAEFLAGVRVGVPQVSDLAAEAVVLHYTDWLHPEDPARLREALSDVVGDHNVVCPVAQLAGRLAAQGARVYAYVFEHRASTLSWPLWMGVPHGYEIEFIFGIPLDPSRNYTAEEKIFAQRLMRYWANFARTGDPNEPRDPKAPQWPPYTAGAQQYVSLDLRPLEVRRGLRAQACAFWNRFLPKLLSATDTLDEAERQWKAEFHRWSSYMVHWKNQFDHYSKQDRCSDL

[11] = molecular target: Cholinesterase (Homo sapiens, UniProt P06276); assay: Inhibition of human BuChE using S-butyrylthiocholine iodide as substrate incubated for 6 mins prior to substrate addition measured after 60 to 180 secs by Ellman method
Sequence of Cholinesterase (Homo sapiens, UniProt P06276) (P06276 whole entry): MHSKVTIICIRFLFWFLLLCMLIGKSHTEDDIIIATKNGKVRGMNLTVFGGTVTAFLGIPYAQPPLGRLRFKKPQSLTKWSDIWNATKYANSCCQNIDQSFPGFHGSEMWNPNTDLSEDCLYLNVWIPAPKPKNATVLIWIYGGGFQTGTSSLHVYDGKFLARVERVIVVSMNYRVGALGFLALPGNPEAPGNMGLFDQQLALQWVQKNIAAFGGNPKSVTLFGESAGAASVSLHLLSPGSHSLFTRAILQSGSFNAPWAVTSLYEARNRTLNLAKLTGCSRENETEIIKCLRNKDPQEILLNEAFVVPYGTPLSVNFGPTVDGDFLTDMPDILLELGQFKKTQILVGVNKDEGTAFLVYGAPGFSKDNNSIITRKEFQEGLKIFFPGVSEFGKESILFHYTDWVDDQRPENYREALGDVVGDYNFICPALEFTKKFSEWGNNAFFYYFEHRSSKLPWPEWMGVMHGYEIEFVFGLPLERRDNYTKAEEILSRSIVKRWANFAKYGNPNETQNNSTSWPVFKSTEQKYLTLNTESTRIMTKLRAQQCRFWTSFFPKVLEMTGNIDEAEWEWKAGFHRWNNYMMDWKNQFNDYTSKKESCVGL

[12] = molecular target: T3, Acetylcholinesterase; assay: Mixed-type inhibition of electric eel AChE by Lineweaver-Burk plot analysis
[13] = molecular target: T2, Amine oxidase [flavin-containing] B; assay: Reversible inhibition of human MAO-B at 100 times IC50 incubated for 30 mins followed by 100 fold dilution to IC50 by dilution assay relative to control; conditions: 0.5 h
[14] = molecular target: T2, Amine oxidase [flavin-containing] B; assay: Competitive inhibition of human MAO-B using p-tyramine as substrate at 0.5 to 0.125 uM by double reciprocal Lineweaver-Burk plot analysis
[15] = Cytotoxicity against human SH-SY5Y cells assessed as cell viability at 13 uM after 24 hrs by MTT assay; assay type: cell-based; conditions: read-out: Activity
[16] = Cytotoxicity against human SH-SY5Y cells assessed as cell viability at […] after 24 hrs by MTT assay; assay type: cell-based; conditions: read-out: Activity
[17] = Cytotoxicity against human SH-SY5Y cells assessed as cell viability at 3.25 uM after 24 hrs by MTT assay; assay type: cell-based; conditions: read-out: Activity
[18] = Cytotoxicity against human SH-SY5Y cells assessed as cell viability at 1.63 uM after 24 hrs by MTT assay; assay type: cell-based; conditions: read-out: Activity
[19] = Cytotoxicity against human SH-SY5Y cells assessed as cell viability at 0.81 uM after 24 hrs by MTT assay; assay type: cell-based; conditions: read-out: Activity
[20] = molecular target: T2, Amine oxidase [flavin-containing] B; assay: Inhibition of human MAO-B using p-tyramine as substrate assessed as H2O2 production at 200 uM by amplex red assay

Row | SMILES | IC50 [1] [µM] | IC50 [2] [nM] | Ratio IC50 [3] | IC50 [4] [nM] | IC50 [5] [nM] | Papp at 16 h [6] [×10⁻⁶ cm/s] | further results
1 | Cc1cc(=O)oc2cc(OCCN3CCN(CCCNc4c5c(nc6ccccc46)CCCC5)CC3)ccc12 | 66.7 | 1770 | 37.7 | 39.1 | 50.8 | 1.9 | 
2 | O=c1ccc2ccc(OCCN3CCN(CCCNc4c5c(nc6ccccc46)CCCC5)CC3)cc2o1 |  | 2000 | > 100 | 17.7 | 38 | 1.21 | inhibition (INH) [7]: Not Active
3 | COc1cc(=O)oc2cc(OCCN3CCN(CCCNc4c5c(nc6ccccc46)CCCC5)CC3)ccc12 |  | 5770 | > 17.3 | 44.7 | 116 | 1.96 | inhibition (INH) [8]: Not Active
4 | O=c1ccc2ccc(OCCCCCCN3CCN(CCNc4c5c(nc6ccccc46)CCCC5)CC3)cc2o1 | 6.02 | 5280 | 1.14 | 330 | 58.6 | 6.96 | 
5 | CCOc1cc(=O)oc2cc(OCCN3CCN(CCCNc4c5c(nc6ccccc46)CCCC5)CC3)ccc12 | 78.6 | 25700 | 3.05 | 51.1 | 86.6 | 2.74 | 
6 | O=c1cc(C(F)(F)F)c2ccc(OCCN3CCN(CCCNc4c5c(nc6ccccc46)CCCC5)CC3)cc2o1 |  | 28800 | > 3.48 | 67 | 149 | 5.58 | inhibition (INH) [8]: Not Active
7 | Cc1c(C)c2ccc(OCc3nnc(C(C)C)s3)cc2oc1=O [ATIBEPRONE] |  |  |  |  |  |  | IC50 [9]: 0.9 nM
8 | Nc1cc(=O)oc2cc(OCCN3CCN(CCCNc4c5c(nc6ccccc46)CCCC5)CC3)ccc12 |  | 38000 | > 2.63 | 38.7 | 70.7 | 0.78 | inhibition (INH) [8]: Not Active
9 | O=c1ccc2ccc(OCCCCN3CCN(CCNc4c5c(nc6ccccc46)CCCC5)CC3)cc2o1 |  | 780 | > 256 | 92.1 | 20.9 | 5.23 | inhibition (INH) [7]: Not Active
10 | Cc1cc2ccc(OCCN3CCN(CCCNc4c5c(nc6ccccc46)CCCC5)CC3)cc2oc1=O |  | 540 | > 185 | 56.6 | 55 | 2.95 | inhibition (INH) [8]: Not Active
11 | Cc1c(C)c2ccc(OCCN3CCN(CCCNc4c5c(nc6ccccc46)CCCC5)CC3)cc2oc1=O | 15.1 |  | 62.8 | 33.6 |  | 4.75 | IC50 [10]: 16.1 nM; IC50 [11]: 113 nM; Ki [12]: 34.4 nM; inhibition (INH) [13]: 79%; inhibition (INH) [14]: Active; viability at 24 h, 13 µM [15]: 77.1%; viability at 24 h, […] [16]: 85.7%; viability at 24 h, 3.25 µM [17]: 91.1%; viability at 24 h, 1.63 µM [18]: 96.6%; viability at 24 h, 0.81 µM [19]: 101%
12 | Cc1c(Cl)c(=O)oc2cc(OCCN3CCN(CCCNc4c5c(nc6ccccc46)CCCC5)CC3)ccc12 | 53.1 | 700 | 75.7 | 31.9 | 72.6 | 5.37 | IC50 [10]: 24.4 nM; IC50 [11]: 124 nM
13 | O=c1ccc2ccc(OCCCCCN3CCN(CCCNc4c5c(nc6ccccc46)CCCC5)CC3)cc2o1 | 10.3 | 2290 | 4.52 | 48.4 | 41.8 | 2.37 | 
14 | O=c1ccc2ccc(OCCN3CCN(CCNc4c5c(nc6ccccc46)CCCC5)CC3)cc2o1 |  | 4560 | > 43.9 | 69.4 | 43.4 | 2.13 | inhibition (INH) [7]: Not Active
15 | O=c1ccc2ccc(OCCCCCCN3CCN(CCCNc4c5c(nc6ccccc46)CCCC5)CC3)cc2o1 | 6.05 | 9510 | 0.64 | 66.2 | 38.5 | 3.4 | 
16 | O=c1ccc2ccc(OCCCCN3CCN(CCCNc4c5c(nc6ccccc46)CCCC5)CC3)cc2o1 |  | 3450 | > 58 | 36 | 23 | 2.04 | inhibition (INH) [7]: Not Active
17 | O=c1ccc2ccc(OCCCN3CCN(CCCNc4c5c(nc6ccccc46)CCCC5)CC3)cc2o1 |  | 2260 | > 88.5 | 24.2 | 31.6 | 1.45 | inhibition (INH) [7]: Not Active
18 | O=c1ccc2ccc(OCCCN3CCN(CCNc4c5c(nc6ccccc46)CCCC5)CC3)cc2o1 |  | 2370 | > 84.4 | 48.4 | 16.1 | 3.43 | inhibition (INH) [7]: Not Active
19 | O=c1ccc2ccc(OCCCCCN3CCN(CCNc4c5c(nc6ccccc46)CCCC5)CC3)cc2o1 | 9.18 | 1590 | 5.77 | 139 | 32.2 | 6.5 | 
20 | O=c1oc2cc(OCCN3CCN(CCCNc4c5c(nc6ccccc46)CCCC5)CC3)ccc2c2c1CCCC2 | 22 | 1520 | 14.4 | 144 | 159 | 3.01 | 
21 | O=c1cc(-c2ccccc2)c2ccc(OCCN3CCN(CCCNc4c5c(nc6ccccc46)CCCC5)CC3)cc2o1 |  |  |  | 195 | 216 | 7.59 | inhibition (INH) [8]: Not Active; inhibition (INH) [20]: Not Active
